The text below walks through data of ChEMBL document CHEMBL5321197, “Computational, in vitro and radiation-based in vivo studies on acetamide quinazolinone derivatives as new proposed purine nucleoside phosphorylase inhibitors for breast cancer” (Eur J Med Chem, 2023).

For one assay, the system named is MCF7. In words: Cytotoxicity against human MCF7 cells assessed as reduction in cell viability incubated for 24 hrs by MTT assay. It is filed as functional, cell-based. The conditions noted are these: MCF7, 24 h.
Assay [1] concerns the target T1, Purine nucleoside phosphorylase (Homo sapiens, UniProt P00491).
T1 sequence (P00491 whole entry): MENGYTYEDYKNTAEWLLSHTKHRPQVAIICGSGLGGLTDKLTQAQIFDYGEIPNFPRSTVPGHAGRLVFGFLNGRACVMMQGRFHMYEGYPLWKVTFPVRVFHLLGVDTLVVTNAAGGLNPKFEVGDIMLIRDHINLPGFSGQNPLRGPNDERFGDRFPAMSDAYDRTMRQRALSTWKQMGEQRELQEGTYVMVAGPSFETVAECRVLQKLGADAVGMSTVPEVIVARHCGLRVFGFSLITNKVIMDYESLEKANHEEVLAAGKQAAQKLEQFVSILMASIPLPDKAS
The assay is described as follows: Inhibition of PNP (unknown origin) by fluorescent based microplate reader analysis.

Another assay relates to MDA-MB-468. The assay is described as follows: Cytotoxicity against human MDA-MB-468 cells assessed as reduction in cell viability incubated for 24 hrs by MTT assay. It is filed as functional, cell-based. The conditions noted are these: MDA-MB-468, 24 h. A general note: Tetrazolium dyes change colour on reduction, which living cells bring about.
The subject of the next assay is MDA-MB-231. The assay is described as follows: Cytotoxicity against human MDA-MB-231 cells assessed as reduction in cell viability incubated for 24 hrs by MTT assay. The conditions noted are these: MDA-MB-231, 24 h. It is filed as functional, cell-based.
Another assay has as its system Hs-578T. In words: cells. It is filed as functional, cell-based. The settings on record: Homo sapiens, 24 h.
In the next assay the test system is MCF-10A. In words: Cytotoxicity against human MCF-10A cells assessed as reduction in cell viability incubated for 24 hrs by MTT assay. It is filed as functional, cell-based.
For the next assay, the system named is T47D. The assay is described as follows: Cytotoxicity against human T47D cells assessed as reduction in cell viability incubated for 24 hrs by MTT assay. It is filed as functional, cell-based.
A further assay has as its system BT-549. The assay is described as follows: Cytotoxicity against human BT-549 cells assessed as reduction in cell viability incubated for 24 hrs by MTT assay. It is filed as functional, cell-based. The settings on record: BT-549, 24 h.

A word on the pIC50: it is −log10 of the IC50, conventionally taken in molar units.

SMILES strings stand for the structures. pIC50: −log10 of the molar value.

Description for Hs-578T: Cytotoxicity against human Hs-578T cells assessed as reduction in cell viability incubated for 24 hrs by MTT assay

For the molecule `COc1cc(NC(=O)Cn2c(=S)n(-c3ccccc3)c(=O)c3cc(C)ccc32)cc(OC)c1`, in the assay on MCF7, the pIC50 is 5.01.

`CCOC(=O)N1CCC(NC(=O)Cn2c(=S)n(-c3ccccc3)c(=O)c3cc(C)ccc32)CC1`: the pIC50 in the assay on MCF7 is 5.75; in assay [1] it was 6.76.

On to `CCOC(=O)c1ccccc1NC(=O)Cn1c(=S)n(-c2ccccc2)c(=O)c2cc(C)ccc21`, for which the pIC50 with MDA-MB-468 is 5.23; with MDA-MB-231, 5.22; in the assay with MCF7, 6.00; in the assay on Hs-578T, 4.65; in assay [1] it was 6.80; in the assay with MCF-10A, 4.17. Moreover, the pIC50 in the assay with T47D is 5.34; in the assay with BT-549, 5.16.

Turning to `Cc1ccc2c(c1)c(=O)n(-c1ccccc1)c(=S)n2CC(=O)NCCc1ccccc1`, the pIC50 is 4.32 in the assay on MCF7 and 6.35 in assay [1].

`Nc1nc2c(Cc3cccnc3)c[nH]c2c(=O)[nH]1` [PELDESINE]: in assay [1], the pIC50 was 7.39.

As to `COc1ccc(NC(=O)CSc2nc3ccc(C)cc3c(=O)n2-c2ccccc2)cc1OC`, the results for the pIC50 (with MCF7; in assay [1]) were 3.42 and 5.25, respectively.

On to `Cc1ccc2nc(SCC(=O)NCCc3ccccc3)n(-c3ccccc3)c(=O)c2c1`, for which the figures for the pIC50 (in the assay on MCF7; in assay [1]) were 3.98 and 5.95, respectively.

Turning to `COc1cc(NC(=O)CSc2nc3ccc(C)cc3c(=O)n2-c2ccccc2)cc(OC)c1`, the pIC50 in the assay with MCF7 is 5.07; in assay [1] it was 5.88.

With `COc1ccc(NC(=O)Cn2c(=S)n(-c3ccccc3)c(=O)c3cc(C)ccc32)cc1OC`, the pIC50 is 5.29 with MCF7 and 6.47 in assay [1].

On to `COc1cc(NC(=O)CSc2nc3ccc(C)cc3c(=O)n2-c2ccccc2)cc(OC)c1OC`, for which the values for the pIC50 (in the assay with MCF7; in assay [1]) were 3.80 and 5.50, respectively.

In the case of `COc1cc2ncnc(Nc3ccc(F)c(Cl)c3)c2cc1OCCCN1CCOCC1` [GEFITINIB], in the assay on T47D, the pIC50 was 5.46.

With `CCOC(=O)c1ccccc1NC(=O)CSc1nc2ccc(C)cc2c(=O)n1-c1ccccc1`, the results for the pIC50 (in the assay with MCF7; in assay [1]) were 3.03 and 5.67, respectively.

`CC(=O)c1ccccc1NC(=O)Cn1c(=S)n(-c2ccccc2)c(=O)c2cc(C)ccc21`: the values for the pIC50 (in the assay on MCF7; in assay [1]) were 4.06 and 6.00, respectively.

Regarding `CCOC(=O)N1CCC(NC(=O)CSc2nc3ccc(C)cc3c(=O)n2-c2ccccc2)CC1`, the pIC50 is 4.51 in the assay with MCF7 and 5.73 in assay [1].

Take `CC(=O)c1ccccc1NC(=O)CSc1nc2ccc(C)cc2c(=O)n1-c1ccccc1`: the results for the pIC50 (in the assay on MCF7; in assay [1]) were 3.56 and 5.47, respectively.

With `COc1cc(NC(=O)Cn2c(=S)n(-c3ccccc3)c(=O)c3cc(C)ccc32)cc(OC)c1OC`, the pIC50 is 5.43 in the assay on MCF7 and 6.59 in assay [1].
